Test results taken from the supplement of paper PMC13207355.

Experiments:
Conditions in all cases: exposure time: 72 h
FT3469 [1] = normal neural stem cell line; test: surviving fraction (nuclei count normalised to DMSO); higher = more cells surviving (less toxic)
E13 [2] = patient-derived glioblastoma stem cells of classical subtype; test: as above
E28 [3] = patient-derived glioblastoma stem cells of classical subtype; test: as above
E57 [4] = patient-derived glioblastoma stem cells of mesenchymal subtype; test: as above
E34 [5] = patient-derived glioblastoma stem cells of proneural subtype; test: as above
E21 [6] = patient-derived glioblastoma stem cells of mesenchymal subtype; test: as above
E31 [7] = patient-derived glioblastoma stem cells of proneural subtype; test: as above
FT3469 [8] = test: phenotypic distance (Euclidean, principal components) from DMSO controls (arbitrary units); higher = stronger morphological change
E13 [9] = test: as above
E28 [10] = test: as above
E57 [11] = test: as above
E34 [12] = test: as above
E21 [13] = test: as above
E31 [14] = test: as above
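For phenotypic distance (Euclidean, principal components) from DMSO controls in this document: cell Painting imaging in 384-well plates, CellProfiler features reduced to at least 20 principal components, Euclidean distance versus same-plate DMSO vehicle wells (0.1% v/v), median over six images per well.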
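For surviving fraction (nuclei count normalised to DMSO) in this document: nuclei counted by high-content imaging of Hoechst-stained cells in laminin-coated 384-well plates, relative to 0.1% DMSO vehicle wells, with staurosporine as cell-death control.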

COc1ccc2[nH]c([S+]([O-])Cc3ncc(C)c(OC)c3C)nc2c1 (stereo not drawn) [Omeprazole]
Conditions | phenotypic distance | surviving fraction
E13 [2], 4.1 nM | – | 1.05
E13 [2], 12.3 nM | – | 0.938
E13 [2], 37 nM | – | 0.905
E13 [2], 111.1 nM | – | 1.03
E13 [2], 333.3 nM | – | 0.869
E13 [2], 1000 nM | – | 1
E13 [2], 3000 nM | – | 0.867
E13 [9], 4.1 nM | 1.1 | –
E13 [9], 12.3 nM | 0.755 | –
E13 [9], 37 nM | 3.51 | –
E13 [9], 111.1 nM | 0.567 | –
E13 [9], 333.3 nM | 0.654 | –
E13 [9], 1000 nM | 2.01 | –
E13 [9], 3000 nM | 2.52 | –
E21 [6], 4.1 nM | – | 0.918
E21 [6], 12.3 nM | – | 0.928
E21 [6], 37 nM | – | 1.02
E21 [6], 111.1 nM | – | 0.96
E21 [6], 333.3 nM | – | 0.928
E21 [6], 1000 nM | – | 0.956
E21 [6], 3000 nM | – | 0.943
E21 [13], 4.1 nM | 0.405 | –
E21 [13], 12.3 nM | 0.66 | –
E21 [13], 37 nM | 0.543 | –
E21 [13], 111.1 nM | 0.648 | –
E21 [13], 333.3 nM | 0.808 | –
E21 [13], 1000 nM | 0.429 | –
E21 [13], 3000 nM | 0.519 | –
E28 [3], 4.1 nM | – | 0.929
E28 [3], 12.3 nM | – | 1.07
E28 [3], 37 nM | – | 1.08
E28 [3], 111.1 nM | – | 1.01
E28 [3], 333.3 nM | – | 0.973
E28 [3], 1000 nM | – | 1.12
E28 [3], 3000 nM | – | 1.07
E28 [10], 4.1 nM | 0.44 | –
E28 [10], 12.3 nM | 0.413 | –
E28 [10], 37 nM | 0.667 | –
E28 [10], 111.1 nM | 0.895 | –
E28 [10], 333.3 nM | 0.743 | –
E28 [10], 1000 nM | 0.799 | –
E28 [10], 3000 nM | 0.723 | –
E31 [7], 4.1 nM | – | 0.952
E31 [7], 12.3 nM | – | 1.04
E31 [7], 37 nM | – | 1.03
E31 [7], 111.1 nM | – | 0.985
E31 [7], 333.3 nM | – | 1.06
E31 [7], 1000 nM | – | 0.947
E31 [7], 3000 nM | – | 0.777
E31 [14], 4.1 nM | 0.572 | –
E31 [14], 12.3 nM | 0.759 | –
E31 [14], 37 nM | 0.563 | –
E31 [14], 111.1 nM | 0.747 | –
E31 [14], 333.3 nM | 0.837 | –
E31 [14], 1000 nM | 0.778 | –
E31 [14], 3000 nM | 0.726 | –
E34 [5], 4.1 nM | – | 1.02
E34 [5], 12.3 nM | – | 1.19
E34 [5], 37 nM | – | 1.12
E34 [5], 111.1 nM | – | 0.869
E34 [5], 333.3 nM | – | 0.988
E34 [5], 1000 nM | – | 1.04
E34 [5], 3000 nM | – | 0.988
E34 [12], 4.1 nM | 1.17 | –
E34 [12], 12.3 nM | 0.774 | –
E34 [12], 37 nM | 1.1 | –
E34 [12], 111.1 nM | 0.579 | –
E34 [12], 333.3 nM | 1.09 | –
E34 [12], 1000 nM | 0.511 | –
E34 [12], 3000 nM | 0.693 | –
E57 [4], 4.1 nM | – | 1.08
E57 [4], 12.3 nM | – | 0.963
E57 [4], 37 nM | – | 0.934
E57 [4], 111.1 nM | – | 0.99
E57 [4], 333.3 nM | – | 0.91
E57 [4], 1000 nM | – | 1.01
E57 [4], 3000 nM | – | 0.926
E57 [11], 4.1 nM | 0.551 | –
E57 [11], 12.3 nM | 0.53 | –
E57 [11], 37 nM | 0.343 | –
E57 [11], 111.1 nM | 0.729 | –
E57 [11], 333.3 nM | 0.596 | –
E57 [11], 1000 nM | 0.755 | –
E57 [11], 3000 nM | 1.11 | –
FT3469 [1], 4.1 nM | – | 0.946
FT3469 [1], 12.3 nM | – | 1.04
FT3469 [1], 37 nM | – | 1
FT3469 [1], 111.1 nM | – | 0.823
FT3469 [1], 333.3 nM | – | 1.04
FT3469 [1], 1000 nM | – | 0.979
FT3469 [1], 3000 nM | – | 0.976
FT3469 [8], 4.1 nM | 0.923 | –
FT3469 [8], 12.3 nM | 0.698 | –
FT3469 [8], 37 nM | 0.685 | –
FT3469 [8], 111.1 nM | 1.14 | –
FT3469 [8], 333.3 nM | 0.549 | –
FT3469 [8], 1000 nM | 0.593 | –
FT3469 [8], 3000 nM | 0.772 | –
